Test results as given in PubChem BioAssay AID248 (DTP/NCI, 2004).
Several values for one entry are separate records, joined by “and”; a condition that tells them apart may be missing. Equal values may be shown once. Inconclusive results and toxic doses are left out. No stated cut-off is given here; in the data, active means T/C of 150% or more; inactive means T/C below 125%.

Test system: L1210 leukemia ip in BDF1 mice, survival T/C
Test: NCI In Vivo Anticancer Drug Screen. Data for tumor model L1210 Leukemia (intraperitoneal) in B6D2F1 (BDF1) mice
Conditions: endpoint: mean survival time, higher = longer survival
Summary of the method: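 Each compound was tested against a transplantable tumor grown in mice. The endpoint was survival, with treated animals benchmarked against vehicle controls as a simple ratio.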

[1] = dose: 100.0 mg/kg/injection, schedule: Q01DX001 (ip), vehicle: saline
[2] = dose: 200.0 mg/kg/injection, schedule: Q01DX001 (ip), vehicle: saline
[3] = dose: 400.0 mg/kg/injection, schedule: Q01DX001 (ip), vehicle: saline
[4] = dose: 100.0 mg/kg/injection, schedule: Q04DX002 (ip), vehicle: saline with Tween-80
[5] = dose: 200.0 mg/kg/injection, schedule: Q04DX002 (ip), vehicle: saline with Tween-80
[6] = dose: 400.0 mg/kg/injection, schedule: Q04DX002 (ip), vehicle: saline with Tween-80
[7] = dose: 75.0 mg/kg/injection, schedule: Q01DX001 (ip), vehicle: saline
[8] = dose: 150.0 mg/kg/injection, schedule: Q01DX001 (ip), vehicle: saline
[9] = dose: 100.0 mg/kg/injection, schedule: Q04DX002 (ip), vehicle: Klucel (hydroxypropylcellulose) (HPC)
[10] = dose: 100.0 mg/kg/injection, schedule: Q04DX003 (ip), vehicle: saline with Tween-80
[11] = dose: 200.0 mg/kg/injection, schedule: Q04DX003 (ip), vehicle: saline with Tween-80
[12] = dose: 400.0 mg/kg/injection, schedule: Q04DX003 (ip), vehicle: saline with Tween-80
[13] = dose: 100.0 mg/kg/injection, schedule: Q01DX009 (ip), vehicle: saline with Tween-80
[14] = dose: 200.0 mg/kg/injection, schedule: Q01DX009 (ip), vehicle: saline with Tween-80
[15] = dose: 400.0 mg/kg/injection, schedule: Q01DX009 (ip), vehicle: saline with Tween-80
[16] = dose: 100.0 mg/kg/injection, schedule: Q01DX009 (ip), vehicle: saline
[17] = dose: 200.0 mg/kg/injection, schedule: Q01DX009 (ip), vehicle: saline
[18] = dose: 400.0 mg/kg/injection, schedule: Q01DX009 (ip), vehicle: saline
[19] = dose: 100.0 mg/kg/injection, schedule: Q01DX001 (ip), vehicle: saline with Tween-80
[20] = dose: 50.0 mg/kg/injection, schedule: Q01DX001 (ip), vehicle: saline
[21] = dose: 100.0 mg/kg/injection, schedule: Q01DX009 (ip), vehicle: Klucel (hydroxypropylcellulose) (HPC)
[22] = dose: 100.0 mg/kg/injection, schedule: Q04DX003 (ip), vehicle: Klucel (hydroxypropylcellulose) (HPC)
[23] = dose: 200.0 mg/kg/injection, schedule: Q01DX009 (ip), vehicle: Klucel (hydroxypropylcellulose) (HPC)
[24] = dose: 200.0 mg/kg/injection, schedule: Q04DX003 (ip), vehicle: Klucel (hydroxypropylcellulose) (HPC)
[25] = dose: 400.0 mg/kg/injection, schedule: Q01DX009 (ip), vehicle: Klucel (hydroxypropylcellulose) (HPC)
[26] = dose: 400.0 mg/kg/injection, schedule: Q04DX003 (ip), vehicle: Klucel (hydroxypropylcellulose) (HPC)

Measured: T/C

CC(=O)OCc1ccnc2ccc(OC(C)=O)cc12
inactive: [1] 100 % of control | [2] 98 % of control | [3] 96 % of control

Cc1ccc(/C(C#N)=C2C=C(Br)/C(=N\O)C=C/2Cl)cc1
inactive: dose: 150.0 mg/kg/injection, schedule: Q01DX009 (ip), vehicle: saline with Tween-80 97 % of control | dose: 225.0 mg/kg/injection, schedule: Q01DX009 (ip), vehicle: saline with Tween-80 90 % of control

O=C(Nc1ccc(F)c(Cl)c1)Oc1ccc(Br)cc1Br
inactive: [4] 100 % of control | [5] 107 % of control | [6] 100 % of control

N#CSCc1c(Cl)c(Cl)c(CSC#N)c(Cl)c1Cl
inactive: dose: 75.0 mg/kg/injection, schedule: Q01DX009 (ip), vehicle: saline 96 % of control | dose: 150.0 mg/kg/injection, schedule: Q01DX009 (ip), vehicle: saline 94 % of control | dose: 300.0 mg/kg/injection, schedule: Q01DX009 (ip), vehicle: saline 93 % of control

Nc1ccc(NC(=S)S)cc1
inactive: [7] 93 % of control | [8] 93 % of control

NC(CCl)=NCC1CCCCCC1
inactive: dose: 25.0 mg/kg/injection, schedule: Q04DX002 (ip), vehicle: Klucel (hydroxypropylcellulose) (HPC) 107 % of control | dose: 50.0 mg/kg/injection, schedule: Q04DX002 (ip), vehicle: Klucel (hydroxypropylcellulose) (HPC) 100 % of control | [9] 101 % of control

CSCCNC(=O)NS(=O)(=O)c1ccc(C)cc1
inactive: [10] 96 % of control | [11] 97 % of control | [12] 97 % of control

C[Si](C)(C)C1C=Cc2ccccc2C1[Si](C)(C)C (centres undefined)
inactive: [13] 94 % of control | [14] 91 % of control | [15] 94 % of control

N#CCCCOc1cccc([N+](=O)[O-])c1
inactive: [13] 93 % of control | [14] 102 % of control

CCCC(C)OS(=O)(=O)c1ccc(C)cc1 (centres undefined)
inactive: [16] 104 % of control | [4] 97 % of control | [17] 96 % of control | [5] 93 % of control | [18] 102 % of control | [6] 97 % of control

CC1OC(n2cnc3c(N)nc(F)nc32)C(O)C1O (centres undefined)
inactive: dose: 37.5 mg/kg/injection, schedule: Q01DX001 (ip), vehicle: other 112 % of control

CN(C)N=Nc1ccc(S(N)(=O)=O)cc1
inactive: dose: 50.0 mg/kg/injection, schedule: Q01DX001 (ip), vehicle: saline with Tween-80 98 % of control | dose: 50.0 mg/kg/injection, schedule: Q04DX003 (ip), vehicle: saline with Tween-80 103 % of control and 105 % of control | [19] 102 % of control | [10] 103 % of control and 105 % of control | dose: 200.0 mg/kg/injection, schedule: Q01DX001 (ip), vehicle: saline with Tween-80 104 % of control | [11] 105 % of control | dose: 400.0 mg/kg/injection, schedule: Q01DX001 (ip), vehicle: saline with Tween-80 105 % of control | [12] 106 % of control and 112 % of control

O=C(/C=C\c1ccc(O)c(O)c1)OC1C(O)CC(OC(=O)/C=C/c2ccc(O)c(O)c2)(C(=O)O)CC1O (centres undefined)
inactive: [16] 105 % of control | [17] 91 % of control | [18] 94 % of control

CC(=O)NCCOc1ccc([N+](=O)[O-])cc1Cl
inactive: dose: 100.0 mg/kg/injection, schedule: Q01DX001 (ip), vehicle: Klucel (hydroxypropylcellulose) (HPC) 100 % of control | dose: 200.0 mg/kg/injection, schedule: Q01DX001 (ip), vehicle: Klucel (hydroxypropylcellulose) (HPC) 110 % of control

O=[N+]([O-])c1[nH]c(Br)c(Br)c1Br
inactive: dose: 0.75 mg/kg/injection, schedule: Q01DX009 (ip), vehicle: Klucel (hydroxypropylcellulose) (HPC) 92 % of control | dose: 1.5 mg/kg/injection, schedule: Q01DX009 (ip), vehicle: Klucel (hydroxypropylcellulose) (HPC) 89 % of control | dose: 3.0 mg/kg/injection, schedule: Q01DX009 (ip), vehicle: Klucel (hydroxypropylcellulose) (HPC) 89 % of control

Nc1ncn(C(=S)Nc2ccccc2)n1
inactive: [20] 102 % of control | [1] 98 % of control | [2] 98 % of control | [3] 98 % of control

NC12CCCCC1(O)CCCC2 (centres undefined)
inactive: [7] 101 % of control | [8] 101 % of control | dose: 300.0 mg/kg/injection, schedule: Q01DX001 (ip), vehicle: saline 95 % of control

O=C1CCCC/C1=C/c1ccccc1
inactive: [21] 102 % of control and 112 % of control | [22] 97 % of control and 96 % of control | [23] 102 % of control | [24] 104 % of control and 101 % of control | [25] 102 % of control and 96 % of control | [26] 104 % of control and 100 % of control

CCOSc1ccc([N+](=O)[O-])cc1[N+](=O)[O-]
inactive: [20] 90 % of control | [1] 93 % of control | [2] 90 % of control | [3] 95 % of control

Cc1ccc(S(=O)(=O)OCC2OC(C)(C)OC3C(COS(=O)(=O)c4ccc(C)cc4)OC(C)(C)OC23)cc1 (centres undefined)
inactive: [1] 99 % of control | [2] 89 % of control | [3] 99 % of control

Cc1cc(=O)n2c3c(c(N)ccc13)OC2
inactive: [21] 108 % of control | [22] 93 % of control | [23] 97 % of control | [24] 100 % of control | [25] 93 % of control | [26] 97 % of control

O=C(O)COc1ccc(Cl)cc1CCl
inactive: [22] 100 % of control | [24] 98 % of control | [26] 102 % of control

CSc1ccc(C(=O)Nc2c(N)ncnc2N)cc1
inactive: dose: 25.0 mg/kg/injection, schedule: Q01DX001 (ip), vehicle: saline 97 % of control | [20] 87 % of control | [19] 100 % of control | [1] 88 % of control

O=C(O)c1cc(S(=O)(=O)O)cc(Br)c1O
inactive: [9] 95 % of control | dose: 200.0 mg/kg/injection, schedule: Q04DX002 (ip), vehicle: Klucel (hydroxypropylcellulose) (HPC) 103 % of control | dose: 400.0 mg/kg/injection, schedule: Q04DX002 (ip), vehicle: Klucel (hydroxypropylcellulose) (HPC) 89 % of control

O=C(Nc1ccccc1O)/C(Cl)=C/Cl
inactive: [13] 109 % of control | dose: 100.0 mg/kg/injection, schedule: Q04DX003 (ip), vehicle: saline sonified 104 % of control | [14] 102 % of control | dose: 200.0 mg/kg/injection, schedule: Q04DX003 (ip), vehicle: saline sonified 106 % of control | [15] 88 % of control | dose: 400.0 mg/kg/injection, schedule: Q04DX003 (ip), vehicle: saline sonified 106 % of control
